Results reported in patent US20200061092A1, “METHODS AND COMPOSITIONS FOR TREATING DISORDERS ASSOCIATED WITH MUSCLE WEAKNESS” (priority 2018, published 2020).

Tests used:
FKRP P448L mutant mice [1] = experiment: Histopathological and morphometric analysis (H&E, Masson's Trichrome) of muscles of P448L mice; type: in vivo, mouse
Experimental: Ribitol was purchased from Sigma (A5502 Adonitol, ≥98%, Sigma, St. Louis) and dissolved in drinking water to the final concentration of 5% or 10%. […] mice aged at 4 weeks were treated with 5% ribitol drinking water for 1 month and […] mice aged at 7 weeks were treated with 5% ribitol drinking water for 3 months and 6 months. All the mice were randomly assigned to either treatment or control groups. And a minimum number of 4 mice were used for each group. No animal was excluded. […] female breeders were given 10% ribitol in drinking water during pregnancy, and pups continued to be treated with 10% ribitol in drinking water until they were euthanized at 19 weeks of age. Untreated age-matched […] and wild-type C57BL/6 mice were used as controls. The animals were terminated at the end of each treatment time point and tissues including heart, diaphragm, TA, quadriceps, liver, spleen and kidney were collected for analyses. Frozen tissues were processed for hematoxylin and eosin (H&E) and Masson's Trichrome staining following standard procedures. Muscle cross-sectional fiber equivalent diameter was determined from tibialis anterior and quadriceps stained with H&E using MetaMorph v7.7 Software (Molecular Devices). Percentage of centrally nucleated myofibers were manually quantified from the same tissue sections stained with H&E. Fibrotic area represented by blue staining in the Masson's Trichrome stained sections was quantified from heart, diaphragm, tibialis anterior and quadriceps using ImageJ software. For all the morphometric analyses, a total of 300 to 400 fibers from two representative 20× magnification images per each muscle per animal were used.

[2] = system: F-α-DG (functionally glycosylated α-DG); experiment: Immunohistochemical staining of F-α-DG with IIH6C4 antibody in muscles of ribitol-treated P448L mice; type: in vivo, mouse
Experimental: Ribitol was purchased from Sigma (A5502 Adonitol, ≥98%, Sigma, St. Louis) and dissolved in drinking water to the final concentration of 5% or 10%. […] mice aged at 4 weeks were treated with 5% ribitol drinking water for 1 month and […] mice aged at 7 weeks were treated with 5% ribitol drinking water for 3 months and 6 months. All the mice were randomly assigned to either treatment or control groups. And a minimum number of 4 mice were used for each group. No animal was excluded. […] female breeders were given 10% ribitol in drinking water during pregnancy, and pups continued to be treated with 10% ribitol in drinking water until they were euthanized at 19 weeks of age. Untreated age-matched […] and wild-type C57BL/6 mice were used as controls. The animals were terminated at the end of each treatment time point and tissues including heart, diaphragm, TA, quadriceps, liver, spleen and kidney were collected for analyses. […] For immunohistochemical detection of functionally glycosylated α-DG, […] of thickness cross sections of untreated and C57 control, as well as tissues from treated cohorts were included in each slide. Slides were first fixed in ice cold Ethanol:Acetic acid (1:1) for 1 min, blocked with 10% normal goat serum (NGS) in […]-buffer saline (TBS) for 30 min at room temperature, and incubated overnight at 4° C. with primary mouse monoclonal antibody IIH6C4 (EMD Millipore) (1:500) against α-DG. Negative controls received 10% normal goat serum in 1×TBS only. Sections were washed and incubated with secondary AlexaFLuor 488 goat anti-mouse IgM (Invitrogen) (1:500) at room temperature for 2 hr. […] Immunofluorescence was visualized using an Olympus BX51/BX52 fluorescence microscope (Opelco) and images were captured using the Olympus DP70 digital camera system (Opelco). Slides were examined in a blinded manner by the investigator.

[3] = system: muscular dystrophy caused by FKRP mutations; experiment: Ribitol/ribose supplementation in animal model of FKRP mutation muscular dystrophy; type: in vivo; details: supplement via drinking water
FKRP P448L mutant mice [4] = experiment: Muscle function tests (treadmill exhaustion, grip strength) in P448L mice; type: in vivo, mouse
Experimental: For treadmill exhaustion test, 17 and 30 weeks old mice were placed on the belt of a five-lane-motorized treadmill (LE8700 treadmill, Panlab/Harvard Apparatus, Barcelona, Spain) supplied with shock grids mounted at the back of the treadmill, which delivered a 0.2 mA current to provide motivation for exercise. Initially, the mice were subjected to an acclimation period (time, 5 min; speed, 8 cm/s, and 0° incline). Immediately after acclimation period, the test commenced with speed increases of 2 cm/s every minute until exhaustion. The test was stopped and the time to exhaustion was determined when the mouse remained on the shock grid for 5 s without attempting to re-engage the treadmill. For grip force test, forelimb and hindlimb in peak torque was measured by a grip strength meter (Columbus Instruments). For forelimb force, the animal was held so that only the forelimb paws grasp the specially designed mouse flat mesh assembly, and was pulled back from the tail until the grip was broken. The force transducer recorded the peak force reached when the animal's grip is broken. For hindlimb force, an angled mesh assembly was used. Mice were allowed to rest on the angled mesh assembly, facing away from the meter with its hindlimbs at least one-half of the way down the length of the mesh. The mouse tail was pulled directly toward the meter and parallel to the mesh assembly. During this procedure, the mice resist by grasping the mesh with all four limbs. Pulling toward the meter was continued until the hindlimbs released from the mesh assembly. Five successful hindlimb and forelimb force measurements within 2 minutes were recorded. The average value was used for analysis. Force was presented as values of KGF (kilogram-force) units normalized to bodyweights (gr) as “Units/gr”. The tests were performed 1 week before euthanasia.

[5] = 10% ribitol from pregnancy to 19 weeks

## OC[C@@H](O)[C@@H](O)[C@@H](O)CO [ribitol]
FKRP P448L mutant mice [1]; 5% ribitol, 3 and 6 months
  Fibrotic area in cardiac muscle vs untreated: significant reduction
  Number of fibers with small diameters (TA and quadriceps): statistically significant decrease
  Percentage of CNF (TA and quadriceps) vs untreated: No significant difference
FKRP P448L mutant mice [1]; 5% ribitol, 3 and 6 months, limb muscles
  Areas of fibrotic tissue (Masson's Trichrome) vs untreated: significantly decreased
FKRP P448L mutant mice [1]; 5% ribitol, 3 month treatment
  Fibrotic tissue in diaphragm (% of tissue cross-section area): 11%
FKRP P448L mutant mice [1]; 5% ribitol, 6 month treatment
  Fibrotic tissue in diaphragm (% of tissue cross-section area): 18%
FKRP P448L mutant mice [1]; [5]
  Centrally nucleated fibers (CNF) in TA vs untreated: significantly fewer
  Fibrosis in cardiac muscle and diaphragm: reduction in fibrosis was significant in cardiac muscle, and most prominent in the diaphragm
[2]; 5% ribitol in drinking water, 1 month, 4-week-old P448L mice, heart, diaphragm, limb muscles
  F-α-DG signal by IIH6C4 immunohistochemistry: visibly increased F-α-DG
[2]; 5% ribitol in drinking water, 3 and 6 months, from 7 weeks of age, all muscles
  F-α-DG levels by IIH6C4 immunofluorescence: clear increase in the levels of F-α-DG
[2]; 10% ribitol in drinking water from pregnancy to 19 weeks of age
  Expression of F-α-DG by immunohistochemistry: detected in all skeletal muscles and in the cardiac muscle
[3]
  Disease pathology of muscular dystrophy caused by FKRP mutations: diminish disease pathology
FKRP P448L mutant mice [4]; 5% ribitol, 3 and 6 months
  Limb muscle function (treadmill exhaustion test): significant improvement in limb muscle function was not demonstrated
FKRP P448L mutant mice [4]; 10% ribitol from pregnancy, 17 weeks of age
  Treadmill running distance and time vs untreated: significantly longer
FKRP P448L mutant mice [4]; 10% ribitol from pregnancy, 18 weeks of age
  Grip strength, forelimb force vs untreated: significant improvement
